These are literature values, as cited in patent US11318122B2, “Pharmaceutical combination and its use for treating synucleinopathties” (CHASE THERAPEUTICS CORPORATION, priority 2017, dated 2022).

Molecules are shown by their SMILES.

The test system of series [1] is 6-OHDA (6-hydroxydopamine)-induced damage. The note with it: toxin-induced model of PD.
The test system of series [2] is extracellular concentrations of norepinephrine and dopamine. The following applies: large doses, rodents, acute systemic administration.
The next series deals with MPTP-induced damage. The following applies: toxin-induced model of PD.
Another series deals with synuclein (Homo sapiens, UniProt P37840).
For series [3] the following is noted: 5 mg/day of pramipexole.
Series [4] deals with human wild-type alpha-synuclein (Homo sapiens, UniProt P37840). The following applies: by H2O2 plus cytochrome c.
For series [5] the following is noted: doses approved for the treatment of motor symptoms of PD; 535 PD patients.
Series [6] deals with alpha-synuclein in human neuroblastoma SH5Y cells (Homo sapiens, UniProt P37840).

Consider `CNCCC(Oc1ccc(C(F)(F)F)cc1)c1ccccc1` (stereo not drawn) [fluoxetine, 1-methylamino-3-phenyl-3-[4-(trifluoromethyl)phenoxy]propane], for which the “protection against 6-OHDA-induced damage” value in [1] was “can protect”. Besides, the “extracellular concentrations of norepinephrine and dopamine” value in [2] is “significant increase”. Further, the “protection against MPTP-induced damage” value in the series with MPTP-induced damage was “can protect”.
For `CCCN[C@H]1CCc2nc(N)sc2C1` [pramipexole, (S)-6-propylamino-4,5,6,7-tetrahydro-1,3-benzothiazole-2-amine], the “synuclein oligomer formation in vitro” value on synuclein is “diminishes synuclein oligomer formation”. For the same compound, in series [3], the nausea is given as 76 % of patients and the vomiting is 39 % of patients. Also, in series [3] (presumably because of intolerable GI adverse events), the “patients not able to complete the study” value is 36 % of patients. Further, the “in vitro oligomerization of human wild-type alpha-synuclein” value in [4] was “decreases the in vitro oligomerization”. Also, the “neuroprotective (disease modifying) activity” value in series [5] is listed as “failed to evidence neuroprotective (i.e., disease modifying) activity”. The aggregation of alpha-synuclein entry in series [6] is “inhibit the aggregation”. In the series with dopaminergic neurons (mouse PD model), the “toxic effects of rotenone on dopaminergic neurons” value was “inhibits the toxic effects of rotenone”. In addition, the immunoreactivity for alpha-synuclein entry with dopaminergic neurons (rotenone mouse PD model) is recorded as “reducing immunoreactivity”.
